Source: the supplement of paper PMC10307832

Experiments:
Experiment in all cases: relative viability (nuclei count vs DMSO), 5 days (fraction); higher = more cells survive
[1] = compound: Nc1ccn([C@@H]2O[C@H](CO)[C@@H](O)C2(F)F)c(=O)n1 [Gemcitabine] + CC(=O)c1c(C)c2cnc(Nc3ccc(N4CCNCC4)cn3)nc2n(C2CCCC2)c1=O [Palbociclib] (partner 0.5 µM)
Procedure, shortened: (§1)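 Lung cancer cell lines in 1536-well plates got either a single drug or a fixed anchor-drug dose together with five library-drug doses (not always all listed) in √10 steps, by pin tool, on the day after seeding. Nuclei were counted after 5 days, and relative viability is the treated-to-vehicle ratio of nuclei counts. Values are medians of duplicate plates.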

[2] = compound: Nc1ccn([C@@H]2O[C@H](CO)[C@@H](O)C2(F)F)c(=O)n1 [Gemcitabine] + CC(C)C[C@H](NC(=O)[C@H](Cc1ccccc1)NC(=O)c1cnccn1)B(O)O [Bortezomib] (partner 0.002 µM)
Procedure, shortened: as §1

[3] = compound: Nc1ccn([C@@H]2O[C@H](CO)[C@@H](O)C2(F)F)c(=O)n1 [Gemcitabine] + Cc1nc(Nc2ncc(C(=O)Nc3c(C)cccc3Cl)s2)cc(N2CCN(CCO)CC2)n1 [Dasatinib] (partner 0.075 µM)
Procedure, shortened: as §1

[4] = compound: Nc1ccn([C@@H]2O[C@H](CO)[C@@H](O)C2(F)F)c(=O)n1 [Gemcitabine] + Cc1nc(NC(=O)N2CCC[C@H]2C(N)=O)sc1-c1ccnc(C(C)(C)C(F)(F)F)c1 [Alpelisib] (partner 2 µM)
Procedure, shortened: as §1

Row | Cell Line | relative viability ([1]; first compound 0.001 µM) | relative viability ([1]; first compound 0.003162 µM) | relative viability ([1]; first compound 0.01 µM) | relative viability ([1]; first compound 0.03162 µM) | relative viability ([1]; first compound 0.1 µM) | relative viability ([2]; first compound 0.001 µM) | relative viability ([2]; first compound 0.003162 µM) | relative viability ([2]; first compound 0.01 µM) | relative viability ([2]; first compound 0.03162 µM) | relative viability ([2]; first compound 0.1 µM) | relative viability ([3]; first compound 0.001 µM) | relative viability ([3]; first compound 0.003162 µM) | relative viability ([3]; first compound 0.01 µM) | relative viability ([3]; first compound 0.03162 µM) | relative viability ([3]; first compound 0.1 µM) | relative viability ([4]; first compound 0.001 µM) | relative viability ([4]; first compound 0.003162 µM) | relative viability ([4]; first compound 0.01 µM) | relative viability ([4]; first compound 0.03162 µM) | relative viability ([4]; first compound 0.1 µM)
1 | UMC-11 | 0.295 | 0.36 | 0.287 | 0.284 | 0.233 | 0.979 | 0.693 | 0.677 | 0.669 | 0.158 | 0.464 | 0.516 | 0.415 | 0.368 | 0.223 | 1.15 | 0.931 | 0.885 | 0.792 | 0.239
2 | LC-2-ad | 0.509 | 0.555 | 0.424 | 0.496 | 0.317 | 0.998 | 0.992 | 0.476 | 0.11 | 0.0847 | 0.567 | 0.226 | 0.193 | 0.167 | 0.138 | 0.901 | 0.833 | 0.5 | 0.0947 | 0.0966
3 | A-427 | 0.552 | 0.492 | 0.421 | 0.326 | 0.235 | 0.99 | 0.996 | 0.68 | 0.225 | 0.139 | 0.67 | 0.629 | 0.183 | 0.126 | 0.109 | 1.03 | 0.99 | 0.764 | 0.169 | 0.0914
4 | NCI-H322M | 0.463 | 0.396 | 0.336 | 0.452 | 0.425 | 1.35 | 0.439 | 0.334 | 0.291 | 0.234 | 0.295 | 0.241 | 0.28 | 0.274 | 0.252 | 0.562 | 0.292 | 0.245 | 0.294 | 0.271
5 | HCC-366 | 0.402 | 0.383 | 0.205 | 0.0402 | 0.026 | 1.05 | 1.01 | 0.425 | 0.0213 | 0.0123 | 0.633 | 0.637 | 0.155 | 0.0301 | 0.0176 | 0.516 | 0.359 | 0.0565 | 0.0184 | 0.0102
6 | NCI-H1975 | 0.638 | 0.502 | 0.48 | 0.148 | 0.122 | 0.385 | 0.401 | 0.207 | 0.198 | 0.155 | 0.419 | 0.574 | 0.241 | 0.0982 | 0.103 | 0.795 | 0.792 | 0.314 | 0.18 | 0.157
7 | NCI-H1437 | 0.317 | 0.351 | 0.331 | 0.225 | 0.171 | 0.532 | 0.395 | 0.342 | 0.127 | 0.105 | 0.392 | 0.274 | 0.285 | 0.139 | 0.107 | 1.15 | 0.873 | 0.373 | 0.185 | 0.0956
8 | NCI-H2009 | 0.216 | 0.203 | 0.193 | 0.132 | 0.0838 | 1.06 | 0.586 | 0.133 | 0.111 | 0.0676 | 0.297 | 0.219 | 0.101 | 0.101 | 0.0766 | 1.15 | 0.552 | 0.276 | 0.12 | 0.112
